# In publication PMC3057995, “Potent Anti-Tumor Effect Generated by a Novel Human Papillomavirus (HPV) Antagonist Peptide Reactivating the pRb/E2F Pathway” (PLoS ONE, 2011):
# Tests used:
# Type in all cases: cell-based
# CaSki cells = test: Western blot, CaSki; details: 80 µM, 48 h
# Protocol: Western blotting was carried out as described previously, [50]. […] After another 48 h of treatment, the cells were lysed in lysis buffer (Beyotime Institute of Biotechnology, Jiangshu, China) containing PMSF (Sigma Chemical Co., St. Louis, MI, USA) for 30 min at 4°C. The lysate was then centrifuged for 20 min at 13,000 rpm and 4°C. The proteins were then separated through SDS-PAGE and transferred onto the PVDF membrane (Immobion®-P Transfer Membrane, Millipore Corp., Billerica, MA, USA). Membranes were blocked in a Tris-buffered saline with 0.1% Tween-20 (TBS-T) solution with 5% nonfat dry milk and incubated overnight with primary antibodies at 4°C. The immunoreactive signals were detected by HRP-conjugated secondary antibodies (KPL, Gaithersburg, MD, USA) followed by SuperSignal® West Pico Chemiluminescent Substrate (Thermo Scientific, Milford, MA, USA.). Anti-β-actin antibodies were used to control protein loading. For the in vivo studies, tumors were harvested, and the cell lysates were prepared and transferred to a clean Eppendorf tube and centrifuged for 30 min at 14,000 rpm. The supernate was probed by western blotting, as described above.
# [1] = test system: cyclin A, E1 and D1 promoters containing E2F binding sites; test: Luciferase reporter assay, SiHa; details: 80 µM, 24 h
# Protocol: SiHa cells were co-transfected with E2F-responsive luciferase reporter plasmids and siRNA of Rb, p130 and p107, respectively.
# The cells were seeded in 12-well plate at a density of 3×10^5 cells/well. The following day, cells were transfected with SiRNA and luciferase reporter plasmids or siRNA alone, respectively, using LipofectAMINE 2000 as described in the manufacturer's protocol (Invitrogen, Carlsbad, CA, USA).
# (§1) The reporter assays were performed using Bright-Glo™ Luciferase Assay System (Promega, Madison, WI, USA) according to the manufacturer's instructions. Briefly, cells were plated in 12-well plates at a density of 1.5×10^5 cells/well. The following day, cells were transfected with reporter constructs. […] Thereafter, cell lysates were collected for reporter assays. The luciferase reporter activity of each sample was normalized against the corresponding protein content prior to calculation of the fold induction value relative to the controls. Each sample was determined in triplicate. The results represent means ± SE from three experiment runs.
# SiHa cells [2] = test: qRT-PCR, SiHa; details: 80 µM
# Protocol: Total RNA was extracted from the cultured cells using TRIzol reagent (Invitrogen, Carlsbad, CA,USA) according to the manufacturer's instructions. qRT-PCR was used to confirm the expression levels of mRNAs. Reverse transcription and qPCR were performed according to the protocol of Reverse Transcriptase System™ and SYBR® premix Ex Taq™ (Perfect Real Time) (TaKaRa, Dalian, P.R. China) on the ABI 7300 Real Time PCR System (Applied Biosystems, Foster City, CA, USA) supplied with analytical software. β-actin mRNA levels were used for normalization. Each sample was determined in triplicate. The results represent means ± SE from three experiment runs.
# [3] = test system: cyclin A, E1 and D1 promoters containing E2F binding sites; test: Luciferase reporter assay, CaSki; details: 80 µM, 24 h, means ± SE, three experiments
# Protocol: as §1
# [4] = test system: mutated cyclin A and E1 promoters; test: Luciferase reporter assay, E2F-site-mutated promoters (pMCCNA-Luc, pMCCNE1-Luc), SiHa; details: 80 µM, 24 h, E2F binding sites mutated
# Excerpt: HPV16E7-pEYFP plasmid was constructed by sub-cloning the HPV16E7 gene into the EcoRI and BamHI sites of pEYFP-N1. The HPV16E7 gene was obtained by PCR from HPV16E7- pET28a (+) plasmid, which was maintained by our laboratory, using primers pE7N1f and pE7N1b. The pRb gene was obtained by nest PCR from HeLa cDNA using pRb1, pRb2, pRb3, pRb4 as primers. The PCR product was then inserted into the HindIII and Xho I sites of pcDNA3.1-His/V5-Topo. pA3-Luc-Cyclin D1 luciferase reporter plasmid containing the cyclin D1 promoter sequence −1745 to +134 was maintained by our laboratory. Both pCCNE1-Luc and pCCNA1-Luc were constructed by nest PCR to amplify fragments of cyclins E1 and A promoter sequences (cyclin E1: +3 to +594; cyclin A: −284 to +254) which include E2F binding sites, [47] from HeLa cDNA, respectively. Primers used in pCCNE1-Luc construction were P(CCE1), P(CCE2), P(CCE3), and P(CCE4), while primers P(CCA1), P(CCA2), P(CCA3), and P(CCA4) were used in PCCNA1-Luc construction. The PCR products were then cloned into the Kpn1 and Bgl II sites of the pGL3-enhancer (Promega, Madison, WI, USA) luciferase reporter plasmid. […]
# The reporter assays were performed using Bright-Glo™ Luciferase Assay System (Promega, Madison, WI, USA) according to the manufacturer's instructions. […] Each sample was determined in triplicate. […]
# SiHa cells [5] = test: MTT cell viability assay, SiHa; details: HPV16-positive, 80 µM in Fig. 3C, medium replaced daily, A540, mean ± SE, at least two independent runs in sextuplicate
# Protocol: Cell viability was determined with an MTT assay. Briefly, the cells were seeded into 96-well plates at a density of 4–5×10^3 cells/well. The cells were allowed to recover for 24 h before the medium was replaced with DMEM supplemented with peptides at different concentrations. The solvent of the peptides was set as the control. The peptide-supplemented medium was replaced daily and the respective concentrations were maintained. The cells were subjected to an MTT cell proliferation assay at different time points. The plates were incubated at 37°C for 3 h with the addition of 20 µl/well MTT (5 mg/ml). Untransformed MTT in the solution was removed by aspiration. The formazan product was dissolved in DMSO, and plates were shaken vigorously at room temperature for 10–15 min to ensure complete solubilization. The optical density of the formazan solutions was measured by microplate reader at 540 nm.
sequence,measurement,setting,value
SACPKGLDWCGG (C&C bridged by disulfide bonds) (disulfide) [Pep-7],HPV16E7 protein level,CaSki cells,reduced
same,"cyclins A, D1 and E1 protein expression",CaSki cells,significantly reduced
same,pRb protein level,CaSki cells,increased
same,"activities of cyclin A, E1 and D1 promoters","[1]; means ± SE, three experiments",remarkable down-regulation
same,influence of p130 or p107 knock-down on Pep-7 suppression of promoters,[1]; p130 or p107 siRNA,did not affect the influence of Pep-7 on these promoters
same,influence of pRb knock-down on Pep-7 suppression of promoters,[1]; pRb siRNA,"abrogated the suppression of cyclin A, E1 and D1 promoter activities by Pep-7"
same,"cyclins A, D1 and E1 RNA expression",SiHa cells [2],significantly reduced
same,pRb and HPV16E7 RNA levels,SiHa cells [2],not affected
same,"activities of cyclin A, E1 and D1 promoters",[3],remarkable down-regulation
same,"activities of mutated promoters (pMCCNA-Luc, pMCCNE1-Luc)",[4],negligible differences from those in control groups
same,cell proliferation (MTT),SiHa cells [5],repressed significantly by Pep-7 in a dose- and time-dependent manner
